System: 777334-354-R2-J4-PDC tumor spheroids with HUVEC/MSC, viability
Assay: Anticancer human tumor 777334-354-R2-J4-PDC patient-derived pancreatic adenocarcinoma cell line growth inhibition [GQUAD]
Conditions: for IC50: curve of first compound; for viability, T/C: stronger effect = lower value
Summary of the method: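 Viability of tumor cells grown as complex spheroids with endothelial and stromal cells, exposed to drug combinations. Top concentration at or near clinical Cmax (else 10 microM), diluted in half-log increments.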

[1] = second compound 0.0316 µM, first compound 0.0316 µM
[2] = second compound 0.0316 µM, first compound 0.1 µM
[3] = second compound 0.0316 µM, first compound 0.316 µM
[4] = second compound 0.0316 µM, first compound 1 µM
[5] = second compound 0.0316 µM, first compound 3.16 µM
[6] = second compound 0.0316 µM, first compound 10 µM
[7] = second compound 0.1 µM, first compound 0.0316 µM
[8] = second compound 0.1 µM, first compound 0.1 µM
[9] = second compound 0.1 µM, first compound 0.316 µM
[10] = second compound 0.1 µM, first compound 1 µM
[11] = second compound 0.1 µM, first compound 3.16 µM
[12] = second compound 0.1 µM, first compound 10 µM
[13] = second compound 0.316 µM, first compound 0.0316 µM
[14] = second compound 0.316 µM, first compound 0.1 µM
[15] = second compound 0.316 µM, first compound 0.316 µM
[16] = second compound 0.316 µM, first compound 1 µM
[17] = second compound 0.316 µM, first compound 3.16 µM
[18] = second compound 0.316 µM, first compound 10 µM
[19] = second compound 1 µM, first compound 0.0316 µM
[20] = second compound 1 µM, first compound 0.1 µM
[21] = second compound 1 µM, first compound 0.316 µM
[22] = second compound 1 µM, first compound 1 µM
[23] = second compound 1 µM, first compound 3.16 µM
[24] = second compound 1 µM, first compound 10 µM
[25] = second compound 3.16 µM, first compound 0.0316 µM
[26] = second compound 3.16 µM, first compound 0.1 µM
[27] = second compound 3.16 µM, first compound 0.316 µM
[28] = second compound 3.16 µM, first compound 1 µM
[29] = second compound 3.16 µM, first compound 3.16 µM
[30] = second compound 3.16 µM, first compound 10 µM
[31] = second compound 10 µM, first compound 0.0316 µM
[32] = second compound 10 µM, first compound 0.1 µM
[33] = second compound 10 µM, first compound 0.316 µM
[34] = second compound 10 µM, first compound 1 µM
[35] = second compound 10 µM, first compound 3.16 µM
[36] = second compound 10 µM, first compound 10 µM
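Also: spheroids exposed to compounds for 7 days before readout.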

C#Cc1c(F)ccc2cc(O)cc(-c3ncc4c(N5CC6CCC(C5)N6)nc(OCC56CCCN5CC(F)C6)nc4c3F)c12 (centres undefined) + CN(C)c1ccc(Nc2c3ccc(NC(=O)CCN4CCCC4)cc3nc3cc(NC(=O)CCN4CCCC4)ccc23)cc1 showed an IC50 (second compound 0.0316 µM) of 33.7 nM, an IC50 (second compound 0.1 µM) of 36.1 nM and an IC50 (second compound 0.316 µM) of under 31.6 nM. For the same molecule, the IC50 (second compound 1 µM) was under 31.6 nM, the IC50 (second compound 3.16 µM) was under 31.6 nM and the IC50 (second compound 10 µM) was under 31.6 nM. The viability, T/C [1] was 51%, the viability, T/C [2] was 38.9% and the viability, T/C [3] was 29.8%. It also gave a viability, T/C [4] of 31.2%, a viability, T/C [5] of 30.1% and a viability, T/C [6] of 22.6%. For the same molecule, the viability, T/C [7] was 52.3%, the viability, T/C [8] was 38.7% and the viability, T/C [9] was 34.3%. For the same molecule, the viability, T/C [10] was 28.4%, the viability, T/C [11] was 29.1% and the viability, T/C [12] was 21.5%. The viability, T/C [13] was 46.9%, the viability, T/C [14] was 35% and the viability, T/C [15] was 36%. It also gave a viability, T/C [16] of 29%, a viability, T/C [17] of 26.5% and a viability, T/C [18] of 22.4%. It also gave a viability, T/C [19] of 37.1%, a viability, T/C [20] of 38% and a viability, T/C [21] of 31.4%. It also gave a viability, T/C [22] of 27.8%, a viability, T/C [23] of 25.4% and a viability, T/C [24] of 23.7%. For the same molecule, the viability, T/C [25] was 38.6%, the viability, T/C [26] was 34.4% and the viability, T/C [27] was 32%. The viability, T/C [28] was 24.2%, the viability, T/C [29] was 22.6% and the viability, T/C [30] was 17.8%. The viability, T/C [31] was 36.3%, the viability, T/C [32] was 32.3% and the viability, T/C [33] was 27.5%. The viability, T/C [34] was 19.6%, the viability, T/C [35] was 15.2% and the viability, T/C [36] was 10.3%.
C=CCn1c(=O)c2cnc(Nc3ccc(N4CCN(C)CC4)cc3)nc2n1-c1cccc(C(C)(C)O)n1 + CN(C)c1ccc(Nc2c3ccc(NC(=O)CCN4CCCC4)cc3nc3cc(NC(=O)CCN4CCCC4)ccc23)cc1 showed an IC50 (second compound 0.0316 µM) of 746 nM, an IC50 (second compound 0.1 µM) of 907 nM and an IC50 (second compound 0.316 µM) of 961 nM. For the same molecule, the IC50 (second compound 1 µM) was 793 nM, the IC50 (second compound 3.16 µM) was 732 nM and the IC50 (second compound 10 µM) was 576 nM. For the same molecule, the viability, T/C [1] was 101%, the viability, T/C [2] was 94.8% and the viability, T/C [3] was 81.6%. It also gave a viability, T/C [4] of 38.8%, a viability, T/C [5] of 36.5% and a viability, T/C [6] of 37.6%. For the same molecule, the viability, T/C [7] was 103%, the viability, T/C [8] was 91.1% and the viability, T/C [9] was 84.6%. It also gave a viability, T/C [10] of 46.1%, a viability, T/C [11] of 36.8% and a viability, T/C [12] of 35.9%. The viability, T/C [13] was 105%, the viability, T/C [14] was 89.8% and the viability, T/C [15] was 77.2%. The viability, T/C [16] was 45.9%, the viability, T/C [17] was 38.4% and the viability, T/C [18] was 33.9%. For the same molecule, the viability, T/C [19] was 87%, the viability, T/C [20] was 82.5% and the viability, T/C [21] was 78%. For the same molecule, the viability, T/C [22] was 42.8%, the viability, T/C [23] was 38.9% and the viability, T/C [24] was 35.2%. It also gave a viability, T/C [25] of 92.9%, a viability, T/C [26] of 81.4% and a viability, T/C [27] of 68%. For the same molecule, the viability, T/C [28] was 41%, the viability, T/C [29] was 39.2% and the viability, T/C [30] was 33.2%. The viability, T/C [31] was 90.1%, the viability, T/C [32] was 81.7% and the viability, T/C [33] was 59.3%. For the same molecule, the viability, T/C [34] was 39.8%, the viability, T/C [35] was 34.1% and the viability, T/C [36] was 25.1%.
